Data as given in ChEMBL document CHEMBL1201862, “PubChem BioAssay data set” (2004).
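Cultured in 96-well plates, cells were exposed to test compound for 48 hours across five concentrations. At the GI50, growth is halved.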 Active and inactive are the calls of the source. No stated cut-off is given here; in the data, active = GI50 up to about 1.1 µM and inactive = higher.

Assays:
Assay in all cases: inhibition of tumour cell growth, NCI panel, 48 h
SK-MEL-2 = tested on: SK-MEL-2
NCI-H226 = tested on: NCI-H226
TK-10 = tested on: TK-10
PC-3 = tested on: PC-3
A549 = tested on: A549
NCI-H23 = tested on: NCI-H23
NCI-H460 = tested on: NCI-H460
SF-268 = tested on: SF-268
DU-145 = tested on: DU-145
ACHN = tested on: ACHN
OVCAR-8 = tested on: OVCAR-8
KM12 = tested on: KM12
OVCAR-5 = tested on: OVCAR-5
BT-549 = tested on: BT-549
Malme-3M = tested on: Malme-3M
SNB-19 = tested on: SNB-19
Hs-578T = tested on: Hs-578T
RXF 393 = tested on: RXF 393
SF-295 = tested on: SF-295
NCI/ADR-RES = tested on: NCI/ADR-RES
HOP-92 = tested on: HOP-92
UACC-257 = tested on: UACC-257
SW-620 = tested on: SW-620
EKVX = tested on: EKVX
RPMI-8226 = tested on: RPMI-8226
HCC 2998 = tested on: HCC 2998
MDA-MB-435 = tested on: MDA-MB-435
UO-31 = tested on: UO-31
SNB-75 = tested on: SNB-75
SR = tested on: SR
SK-MEL-5 = tested on: SK-MEL-5
HCT-116 = tested on: HCT-116
T47D = tested on: T47D
COLO 205 = tested on: COLO 205
LOX IMVI = tested on: LOX IMVI
HOP-62 = tested on: HOP-62
MDA-MB-231 = tested on: MDA-MB-231
U-251 = tested on: U-251
A498 = tested on: A498
IGROV-1 = tested on: IGROV-1
MCF7 = tested on: MCF7
HT-29 = tested on: HT-29
OVCAR-4 = tested on: OVCAR-4
CAKI-1 = tested on: CAKI-1
HL-60 = tested on: HL-60
SK-MEL-28 = tested on: SK-MEL-28
MDA-N = tested on: MDA-N
SN12C = tested on: SN12C
OVCAR-3 = tested on: OVCAR-3
HCT-15 = tested on: HCT-15
NCI-H522 = tested on: NCI-H522
UACC-62 = tested on: UACC-62
K562 = tested on: K562
786-0 = tested on: 786-0
M14 = tested on: M14

With C[C@@]1(c2ccccc2)O[C@@H]2C[C@H]3[C@@H]4CCC5=CC(=O)C=C[C@]5(C)[C@@]4(F)[C@@H](O)C[C@]3(C)[C@]2(C(=O)CO)O1 [AMCINAFIDE] as the compound, how does the GI50 (SK-MEL-2) read?
The GI50 was 14.4 µM (inactive).

And the GI50 (NCI-H226)?
Its GI50 is 15.8 µM (inactive).

And the GI50 (TK-10)?
Its GI50 is 19.5 µM (inactive).

And the GI50 (PC-3)?
Its GI50 is 16 µM (inactive).

And the GI50 (A549)?
The GI50 was 11.8 µM (inactive).

What about the GI50 (NCI-H23) of the same compound?
The GI50 was 18.1 µM (inactive).

And the GI50 (NCI-H460)?
Its GI50 is 14.6 µM (inactive).

And the GI50 (SF-268)?
The GI50 was 15.1 µM (inactive).

What about the GI50 (DU-145) of the same compound?
The GI50 was 20.1 µM (inactive).

And the GI50 (ACHN)?
Its GI50 is 18.1 µM (inactive).

And the GI50 (OVCAR-8)?
Its GI50 is 17.5 µM (inactive).

And the GI50 (KM12)?
Its GI50 is 16.4 µM (inactive).

What about the GI50 (OVCAR-5) of the same compound?
The GI50 was 15.6 µM (inactive).

And the GI50 (BT-549)?
The GI50 was 18.2 µM (inactive).

And the GI50 (Malme-3M)?
Its GI50 is 13.8 µM (inactive).

And the GI50 (SNB-19)?
The GI50 was 24.7 µM (inactive).

And the GI50 (Hs-578T)?
The GI50 was 18.7 µM (inactive).

And the GI50 (RXF 393)?
Its GI50 is 20.1 µM (inactive).

And the GI50 (SF-295)?
Its GI50 is 16.7 µM (inactive).

And the GI50 (NCI/ADR-RES)?
Its GI50 is 15 µM (inactive).

And the GI50 (HOP-92)?
Its GI50 is 22.3 µM (inactive).

What about the GI50 (UACC-257) of the same compound?
Its GI50 is 17.6 µM (inactive).

And the GI50 (SW-620)?
Its GI50 is 21.9 µM (inactive).

What about the GI50 (EKVX) of the same compound?
The GI50 was 12.4 µM (inactive).

What about the GI50 (RPMI-8226) of the same compound?
Its GI50 is < 0.01 µM (active).

What about the GI50 (HCC 2998) of the same compound?
The GI50 was 17.3 µM (inactive).

What about the GI50 (MDA-MB-435) of the same compound?
The GI50 was 18.7 µM (inactive).

And the GI50 (UO-31)?
Its GI50 is 18.1 µM (inactive).

And the GI50 (SNB-75)?
Its GI50 is 26.9 µM (inactive).

What about the GI50 (SR) of the same compound?
Its GI50 is 19.3 µM (inactive).

What about the GI50 (SK-MEL-5) of the same compound?
The GI50 was 14.9 µM (inactive).

And the GI50 (HCT-116)?
The GI50 was 14.6 µM (inactive).

And the GI50 (T47D)?
The GI50 was 20.2 µM (inactive).

And the GI50 (COLO 205)?
The GI50 was 14.4 µM (inactive).

What about the GI50 (LOX IMVI) of the same compound?
The GI50 was 23.8 µM (inactive).

What about the GI50 (HOP-62) of the same compound?
The GI50 was 15.6 µM (inactive).

What about the GI50 (MDA-MB-231) of the same compound?
Its GI50 is 11.1 µM (inactive).

What about the GI50 (U-251) of the same compound?
The GI50 was 17.7 µM (inactive).

And the GI50 (A498)?
The GI50 was 18 µM (inactive).

And the GI50 (IGROV-1)?
Its GI50 is 17.7 µM (inactive).

And the GI50 (MCF7)?
Its GI50 is 13.9 µM (inactive).

And the GI50 (HT-29)?
The GI50 was 17 µM (inactive).

What about the GI50 (OVCAR-4) of the same compound?
Its GI50 is 15 µM (inactive).

And the GI50 (CAKI-1)?
Its GI50 is 23.3 µM (inactive).

What about the GI50 (HL-60) of the same compound?
Its GI50 is 18.8 µM (inactive).

What about the GI50 (SK-MEL-28) of the same compound?
The GI50 was 16.3 µM (inactive).

What about the GI50 (MDA-N) of the same compound?
The GI50 was 17 µM (inactive).

What about the GI50 (SN12C) of the same compound?
Its GI50 is 12.9 µM (inactive).

What about the GI50 (OVCAR-3) of the same compound?
Its GI50 is 15 µM (inactive).

What about the GI50 (HCT-15) of the same compound?
Its GI50 is 17.9 µM.

And the GI50 (NCI-H522)?
Its GI50 is 11.5 µM (inactive).

And the GI50 (UACC-62)?
Its GI50 is 16.7 µM (inactive).

What about the GI50 (K562) of the same compound?
The GI50 was 12.5 µM (inactive).

And the GI50 (786-0)?
Its GI50 is 16.3 µM (inactive).

And the GI50 (M14)?
The GI50 was 16.1 µM (inactive).
